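Five compound concentrations were applied to cells in 96-well plates for 48 hours; endpoints were derived by simple linear interpolation of the resulting dose-response curve. GI50 = concentration required for 50% inhibition of growth.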 Activity calls are given as the source filed them. Cut-off read from the data, not from the text of the source: active = GI50 up to about 1.1 µM and inactive = higher.
Columns and labels:
Test in all cases: inhibition of tumour cell growth, NCI panel, 48 h
[1] = system: HT-29
[2] = system: ACHN
[3] = system: IGROV-1
[4] = system: HOP-92
[5] = system: HOP-62
[6] = system: KM12
[7] = system: SW-620
[8] = system: Malme-3M
[9] = system: OVCAR-3
[10] = system: MDA-MB-231
[11] = system: SN12C
[12] = system: SF-539
[13] = system: CCRF-CEM
[14] = system: SNB-19
[15] = system: MCF7
[16] = system: NCI-H522
[17] = system: SF-295
[18] = system: MDA-MB-435
[19] = system: MDA-N
[20] = system: RPMI-8226
[21] = system: M14
[22] = system: RXF 393
[23] = system: OVCAR-4
[24] = system: COLO 205
[25] = system: K562
[26] = system: BT-549
[27] = system: SK-MEL-2
[28] = system: PC-3
[29] = system: NCI-H23
[30] = system: NCI-H460
[31] = system: UACC-62
[32] = system: UACC-257
[33] = system: HL-60
[34] = system: NCI/ADR-RES
[35] = system: SK-MEL-28
[36] = system: SR
[37] = system: U-251
[38] = system: MOLT-4
[39] = system: A549
[40] = system: DU-145
[41] = system: UO-31
[42] = system: OVCAR-8
[43] = system: OVCAR-5
[44] = system: EKVX
[45] = system: LOX IMVI
[46] = system: TK-10
[47] = system: HCT-15
[48] = system: Hs-578T
[49] = system: 786-0
[50] = system: NCI-H226
[51] = system: HCT-116
[52] = system: SK-OV-3

Compound: COc1ccc2[nH]cc(CCNC(=O)[C@H](Cc3ccc(O)cc3)NC(=O)[C@@H](NCC(F)(F)F)C(C)C)c2c1
- GI50 [1]: 52.5 µM (inactive)
- GI50 [2]: > 100 µM (inactive)
- GI50 [3]: 97.7 µM (inactive)
- GI50 [4]: 75.5 µM (inactive)
- GI50 [5]: > 100 µM (inactive)
- GI50 [6]: > 100 µM (inactive)
- GI50 [7]: > 100 µM (inactive)
- GI50 [8]: > 100 µM (inactive)
- GI50 [9]: 20.1 µM (inactive)
- GI50 [10]: > 100 µM (inactive)
- GI50 [11]: > 100 µM (inactive)
- GI50 [12]: > 100 µM (inactive)
- GI50 [13]: 39.7 µM (inactive)
- GI50 [14]: > 100 µM (inactive)
- GI50 [15]: 35.5 µM (inactive)
- GI50 [16]: 26.5 µM (inactive)
- GI50 [17]: 39.7 µM (inactive)
- GI50 [18]: 25.2 µM (inactive)
- GI50 [19]: 45.1 µM (inactive)
- GI50 [20]: 34.4 µM (inactive)
- GI50 [21]: > 100 µM (inactive)
- GI50 [22]: > 100 µM (inactive)
- GI50 [23]: 40 µM (inactive)
- GI50 [24]: 41.9 µM (inactive)
- GI50 [25]: 71.6 µM (inactive)
- GI50 [26]: 67.5 µM (inactive)
- GI50 [27]: 58.2 µM (inactive)
- GI50 [28]: > 100 µM (inactive)
- GI50 [29]: > 100 µM (inactive)
- GI50 [30]: 48 µM (inactive)
- GI50 [31]: > 100 µM (inactive)
- GI50 [32]: 62.5 µM (inactive)
- GI50 [33]: 41.3 µM (inactive)
- GI50 [34]: > 100 µM (inactive)
- GI50 [35]: 65.5 µM (inactive)
- GI50 [36]: > 100 µM (inactive)
- GI50 [37]: 74.1 µM (inactive)
- GI50 [38]: 68.5 µM (inactive)
- GI50 [39]: 45.7 µM (inactive)
- GI50 [40]: > 100 µM (inactive)
- GI50 [41]: > 100 µM (inactive)
- GI50 [42]: 76 µM (inactive)
- GI50 [43]: > 100 µM (inactive)
- GI50 [44]: 99.8 µM (inactive)
- GI50 [45]: 25.2 µM (inactive)
- GI50 [46]: > 100 µM (inactive)
- GI50 [47]: > 100 µM
- GI50 [48]: 31 µM (inactive)
- GI50 [49]: > 100 µM (inactive)
- GI50 [50]: 41.8 µM (inactive)
- GI50 [51]: 95.5 µM (inactive)
- GI50 [52]: > 100 µM (inactive)
